Measurements taken from PMC10447463, “Data-mining unveils structure–property–activity correlation of viral infectivity enhancing self-assembling peptides” (Nature Communications, 2023).
Like-named read-outs stand apart in the source and are kept apart here.

Experiments:
[1] = test system: HIV-1 infection of TZM-bl cells; assay: HIV-1 infectivity enhancement assay, β-galactosidase luminescence; format: cell-based; conditions: for Rel-EFC: infection relative to EF-C (QCKIKQIINMWQ = 1); for Log10 Infection Rel EFC: log10 of infection relative to EF-C; for Log Infectivity: Log10 infection relative to EF-C; for Log Infectivity / Abs. Inf.: TZM-bl cells; for Log10 Infection Rel EF-C: HIV-1 infection of TZM-bl cells; for Abs. Inf.: absolute HIV-1 infection signal, β-galactosidase luminescence; for Infection (FigS19 A): mean of 3 replicates
[2] = format: physicochemical; conditions: for ThT Cat. / ThT-Fluorescence (categorical): ThT-active if fluorescence at least twice the control
Method: 4 µL of 1 mg/mL peptide fibrils solution is added to a 20 µL, 50 µM ThT–solution in PBS. The mixture is incubated for 15 min at RT to allow binding of ThT dye with β–sheet rich structures. For reference PBS (4 µL) was added instead of peptide fibril solution. The samples were placed in black UV Star® 384 microliter well–plates (Greiner bio–one). Fluorescence spectra were recorded on an Infinite® M1000 PRO microplate reader (Tecan) at λem = 488 nm upon excitation at λex = 440 nm with 10 nm bandwidths and multiple reads per well (3×3). Measurements were repeated in triplicates and averaged with standard deviation. […] Zeta-Potential. For the determination of the surface charge of aggregated peptides zeta-potential measurements were conducted with a Zetasizer Nano ZS, Malvern Instruments. Unless stated otherwise the peptides were dissolved from DMSO (10 mg/mL) in PBS (pH 7.4) to concentration of 1 mg/mL and incubated for 1d at RT. Just before the measurement the 60 µL of the peptides were further diluted in 600 µL KCl (aq, 1 mM) in a 1 mL disposable folded capillary cells (DTS–1060, Zetasizer Nano series, Malvern). The zeta potential of the peptides was derived from the electrophoretic mobility based on the Smoluchowski formula. All measurements were averaged over two individually performed experiments and conducted in triplicates for each sample. Aggregate analysis. […] Furthermore, fluorescence microscopy was conducted by staining 1 µL preformed fibrils (1 mg/mL) with 9 µL ThT (50 µM). Brightfield microscopy was performed simultaneously to evaluate aggregation also for non ThT-active fibrils. The measurements were performed on a Leica DMi8 microscope with 10x air objective and equipped with a Leica MC170 HD camera with a filter setting λem = 527/30 nm upon excitation at λex = 480/40 nm) and processed with the Leica LASX software. To quantify size and number of microscopic aggregation of particles > 10 µm^2 at least 3 independently measured images were analyzed via the 3D object counter analysis tool of ImageJ, v 1.53f51. Sum–frequency generation. The SFG experiments were carried out with a femtosecond Ti: Sapphire amplified laser system (Spitfire Ace, Spectra–Physics, 800 nm, 40 fs, 1 kHz) with 5 W output power. We used 2 W to pump an optical parametric amplifier (TOPAS, light conversion) with a non–collinear difference frequency generation stage to generate broadband IR pulses. Another 1 W of the laser output passed through an etalon to generate narrowband visible pulses (10 cm^-1). The incident angles of the visible and IR beams were 36° and 41° with respect to the surface normal, respectively. The visible (13 µJ) and IR (5 µJ) pulses were overlapped spatially and temporally at the sample position. Subsequently, the generated SFG pulse was guided into a spectrograph (Acton SP 300i, Princeton Instruments), and detected with an EMCCD (Newton, Andor Technology). To avoid IR absorption of water vapor, we purged N2 for the measurement. All spectra were collected in the ssp (denoting s-, s- and p-polarized SFG, visible and IR, respectively) polarization combination. The spectra were normalized to the non–resonant signal taken from z–cut quartz after subtracting a background spectrum.
1. Remarks on experimental parameters and bioinformatic descriptors

[3] = β-sheet content by ATR-FT-IR; format: physicochemical; conditions: Fig. S7 panel A; β-sheet content by ATR-FT-IR
Method: For ATR FT–IR spectroscopy measurements, 200 µL of the respective 1 mg/mL PNF solution was lyophilized and the resulting powder used for measurement. All spectra were recorded on a Bruker Tensor 27 spectrometer with a diamond crystal as ATR element (PIKE MiracleTM, spectral resolution 2 cm^-1). Every sample was measured with 64 scans. Data were analyzed with OriginLab software and calculation of β–sheet content was conducted according to a previous report. TEM. For TEM measurements 5 µL of PNF fibrils (1 mg/mL) were placed on copper grids coated with carbon and formvar layer (300 mesh, Plano GmbH). After 10 min incubation time, the grids were staining with 4% uranyl acetate solution for 2.5 min and washed with water. Measurements were performed on a Jeol 1400 electron microscope with 120 kV acceleration voltage. CR Assay. For the determination of the amount of peptide monomer converting into nanostructures the amine reactive dye fluorescamine was used analogous to a previous reported protocol. Briefly, 100 µL of the preformed PNF solution was centrifuged in a Vivaspin 500 tube (3 kDa MWCO) to separate fibers from free peptide monomer (16200 x g, 4 °C, 45 min). The filtrate and 100 μL of the non-filtered PNF sample were lyophilized and dissolved in 30 μL DMSO. 10 μL of the filtrate and non-filtered DMSO samples were submitted in a black UV Star® 384 microliter well–plates (Greiner bio–one) and 3 μL of the fluorescamine solution (10 mg/mL, DMSO) was added to measure the fluorescence enhancement. After 20 min of incubation at RT, fluorescence was recorded on an Infinite® M1000 PRO microplate reader (Tecan) at λem = 470 nm upon excitation at λex = 365 nm with 10 nm bandwidths and multiple reads per well (3×3). Measurements were repeated in triplicates and averaged with standard deviation. All values were calculated as n-fold fluorescence enhancement (DMSO only as a reference was set to 1). The conversion rate CR was defined according to the equation Eq. (3).3 CR=100−100×fluorescenceintensityfiltrate/fluorescenceintensityoriginal[%]

[4] = Fig. S7 panel A (plotted against β-sheet content), asymmetric std dev errors
[5] = Log10 of infection rate relative to EF-C, Figure 3A source data
[6] = infection rate relative to EF-C, log10, data of Figure 2D
[7] = infection rate relative to EF-C, log10, source data of Figure 2C
[8] = Log10 of infection relative to EF-C, all peptides of FigS16
[9] = ThT fluorescence category, 1 if Rel. ThT >2
[10] = Fig. S7 panel B (plotted against CR), rounded to two decimals, asymmetric std dev errors

Substance | Rel-EFC ([1]; 1.3 µM peptide) | Log10 Infection Rel EFC ([1]; 1.3 µM peptide) | Log Infectivity [1, 4] | Log10 Infection Rel EF-C [1, 5] | Log10 Infection Rel EF-C [1, 6] | Log10 Infection Rel EF-C [1, 7] | Log10 of Rel to EFC (Feb2021) [1, 8] | Tht category (> 2 to blank = +) ([2]; Fig S10 panel D) | ThT Cat, ([2]; ThT category, 1 if Rel. ThT >2) | ThT Cat. / ThT-Fluorescence (categorical) [2] | b -sheet / % [3] | Tht category (> 2 to blank = +) ([2]; FigS12 panel A) | ThT Cat, ([2]; FigS12 panel B) | ThT Cat. [2, 9] | Log Infectivity [1, 10] | ThT Cat. ([2]; Fig S10 panel E) | also measured
KIKIQIW | 0,14 | -0,85 | -0.8533 | -0.85 | -0.8533 | -0.8533 | -0.85 | 1 (ThT. Cat is 1, if Rel. ThT >2) | 1 (ThT. Cat is 1, if Rel. ThT >2) | 1 (ThT. Cat is 1, if Rel. ThT >2) | 49.1721% | – | – | – | – | – | Abs. Inf. [1]: 4280; ThT Cat. ([2]; ThT category, 1 if Rel. ThT >2): 1 (ThT. Cat is 1, if Rel. ThT >2)
KIKIQII | 0,02 | -1,73 | -1.729 | -1.73 | -1.729 | -1.729 | – | 0 (ThT-inactive (N-Fold <2)) | 0 (ThT-inactive (N-Fold <2)) | 0 (ThT-inactive (N-Fold <2)) | 44.64% | 0 (ThT-inactive (N-Fold <2)) | 0 (ThT-inactive (N-Fold <2)) | 0 (ThT-inactive (N-Fold <2)) | – | – | –
KIKQII | 0 | -2,31 | -2.308 | -2.31 | -2.308 | -2.308 | – | 0 (ThT-inactive (N-Fold <2)) | 0 (ThT-inactive (N-Fold <2)) | 0 (ThT-inactive (N-Fold <2)) | 38.67% | 0 (ThT-inactive (N-Fold <2)) | 0 (ThT-inactive (N-Fold <2)) | 0 (ThT-inactive (N-Fold <2)) | -2.31 | 0 (ThT-inactive (N-Fold <2)) | –
CKIW | 0,05 | -1,29 | -1.286 | -1.29 | -1.286 | -1.286 | – | 0 (ThT-inactive (N-Fold <2)) | 0 (ThT-inactive (N-Fold <2)) | 0 (ThT-inactive (N-Fold <2)) | 46.02% | 0 (ThT-inactive (N-Fold <2)) | 0 (ThT-inactive (N-Fold <2)) | – | -1.29 | 0 (ThT-inactive (N-Fold <2)) | Abs. Inf. [1]: 290; ThT Cat. ([2]; ThT category, 1 if Rel. ThT >2): 0 (ThT-inactive (N-Fold <2))
HHHHKAKAKAKAYYYY | 0,01 | -1,88 | -1.883 | -1.88 | -1.883 | -1.883 | – | 0 (ThT-inactive (N-Fold <2)) | 0 (ThT-inactive (N-Fold <2)) | 0 (ThT-inactive (N-Fold <2)) | 44.29% | 0 (ThT-inactive (N-Fold <2)) | 0 (ThT-inactive (N-Fold <2)) | 0 (ThT-inactive (N-Fold <2)) | – | – | –
CKIKIQIRGD | 0,33 | -0,48 | -0.4842 | -0.48 | -0.4842 | -0.4842 | -0.48 | 0 (ThT-inactive (N-Fold <2)) | 0 (ThT-inactive (N-Fold <2)) | 0 (ThT-inactive (N-Fold <2)) | 58.14% | – | – | 0 (ThT-inactive (N-Fold <2)) | -0.48 | 0 (ThT-inactive (N-Fold <2)) | –
CKIKQIIRGD | 0,05 | -1,31 | – | -1.31 | -1.311 | -1.311 | – | – | 0 (ThT-inactive (N-Fold <2)) | 0 (ThT-inactive (N-Fold <2)) | – | – | 0 (ThT-inactive (N-Fold <2)) | 0 (ThT-inactive (N-Fold <2)) | – | – | –
HHHHKIKIKIKIWWWW [TM4] | – | – | – | – | – | – | – | – | – | – | – | – | – | – | – | – | Infection (FigS19 A) ([1]; 0.26 µM peptide): 15326.66667 RLU/s; Infection (FigS19 A) ([1]; 1.3 µM peptide): 20796.66667 RLU/s; Infection (FigS19 A) ([1]; 6.5 µM peptide): 12450 RLU/s; Absolute Infectivity / RLU /s (Feb2021) ([1]; Feb2021, figures match the 1.3 µM column): 20796.66667 RLU /s; n-fold to virus (Feb2021) ([1]; Feb2021, infectivity relative to virus only): 15.92; Log10 of Rel to EFC (Feb2021) ([1]; Feb2021, log10 of infectivity relative to EF-C): -0.4216; Rel-to EFC (Feb-2021) ([1]; Feb2021, n-fold infectivity relative to EF-C): 0.3788; Rel-to EFC ([1]; Fig S8 panels B, D, infectivity enhancement relative to EF-C): 0.3788; n-fold to virus ([1]; Fig S8 panels B, D, infectivity n-fold relative to virus alone): 15.92; infectivity ([1]; infectivity class (low / medium / high) of each library peptide, main list in c1-c6, same classes repeated in sub-lists of sequences containing the hydrophobicity/charge patterns P+,H0,P+,H0,P0,H0,P0, P+,H0,P0,H0,P0,H0,P0, P+,H0,P0,H0): medium; Log10 Inf. rel. to EF-C ([1]; log10 of HIV-1 infection of TZM-bl cells relative to EF-C, Fig S15 source data, asymmetric std dev errors): -0.4216; Tht rel to blank (42.1851851851852) ([2]; ThT fluorescence relative to blank, blank = 42.1851851851852): 4.025; Tht category (> 1.5 to blank = +) ([2]; category 1/0): 1 (ThT. Cat is 1, if Rel. ThT >2)
RGDKIKIQINMC | 1,07 | 0,03 | – | 0.03 | 0.02911 | 0.02911 | 0.03 | – | 0 (ThT-inactive (N-Fold <2)) | 0 (ThT-inactive (N-Fold <2)) | – | – | – | 0 (ThT-inactive (N-Fold <2)) | 0.03 | – | –
